Activity calls are given as the source filed them.

The source of these data is ChEMBL document CHEMBL1201862, “PubChem BioAssay data set” (2004).

In one test the target is Cytochrome P450 3A4 (Homo sapiens, UniProt P08684).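 Also: CYP3A4 tested as one member of a cytochrome P450 panel screen.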
Test [1] has as its target T1, High affinity choline transporter 1 (Homo sapiens, UniProt Q9GZV3).
T1 sequence (Q9GZV3 whole entry): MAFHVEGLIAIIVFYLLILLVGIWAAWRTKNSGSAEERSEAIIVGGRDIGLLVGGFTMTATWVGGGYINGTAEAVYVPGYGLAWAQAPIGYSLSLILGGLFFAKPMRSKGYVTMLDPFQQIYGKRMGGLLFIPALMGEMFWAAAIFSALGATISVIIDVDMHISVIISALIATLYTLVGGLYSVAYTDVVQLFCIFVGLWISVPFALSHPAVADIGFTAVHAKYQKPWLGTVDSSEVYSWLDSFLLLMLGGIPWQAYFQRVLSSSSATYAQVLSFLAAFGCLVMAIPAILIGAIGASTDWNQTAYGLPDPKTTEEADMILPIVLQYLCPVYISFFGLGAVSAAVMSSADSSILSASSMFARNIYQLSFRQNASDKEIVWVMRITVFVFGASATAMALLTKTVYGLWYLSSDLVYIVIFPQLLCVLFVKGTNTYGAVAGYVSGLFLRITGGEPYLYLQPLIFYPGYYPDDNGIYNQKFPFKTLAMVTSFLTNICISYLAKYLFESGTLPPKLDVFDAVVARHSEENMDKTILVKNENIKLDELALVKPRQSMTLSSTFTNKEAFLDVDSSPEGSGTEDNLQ
Description: human choline transporter blockers, potency – cell-based, 5-point CRC, membrane potential dye, dose response (AID 504840). It is filed as functional.

A further test deals with T2, Protein skinhead-1 (Caenorhabditis elegans, UniProt P34707).
T2 sequence (P34707 whole entry): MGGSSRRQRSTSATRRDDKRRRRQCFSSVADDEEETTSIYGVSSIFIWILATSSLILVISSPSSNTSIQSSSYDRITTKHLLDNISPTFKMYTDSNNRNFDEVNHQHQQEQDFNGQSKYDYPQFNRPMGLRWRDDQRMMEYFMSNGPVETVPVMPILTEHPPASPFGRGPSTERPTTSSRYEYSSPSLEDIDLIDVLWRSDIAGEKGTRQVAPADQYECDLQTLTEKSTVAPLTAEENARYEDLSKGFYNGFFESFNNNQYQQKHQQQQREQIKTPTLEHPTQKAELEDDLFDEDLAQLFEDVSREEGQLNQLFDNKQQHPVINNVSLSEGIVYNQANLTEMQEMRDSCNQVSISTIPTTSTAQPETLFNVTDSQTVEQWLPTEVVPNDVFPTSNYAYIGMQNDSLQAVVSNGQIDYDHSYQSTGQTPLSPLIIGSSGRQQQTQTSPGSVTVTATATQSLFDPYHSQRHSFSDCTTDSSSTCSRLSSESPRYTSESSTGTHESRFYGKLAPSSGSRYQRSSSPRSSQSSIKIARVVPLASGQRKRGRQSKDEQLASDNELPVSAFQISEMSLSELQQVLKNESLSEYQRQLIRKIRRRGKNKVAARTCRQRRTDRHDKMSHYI
The test is classed as functional.

Test [2] has as its target T3, Sentrin-specific protease 8 (Homo sapiens, UniProt Q96LD8).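 Also: luminescence read-out of SENP8 inhibition, dose-response confirmation following an ultra-high-throughput screen.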
T3 sequence (Q96LD8 whole entry): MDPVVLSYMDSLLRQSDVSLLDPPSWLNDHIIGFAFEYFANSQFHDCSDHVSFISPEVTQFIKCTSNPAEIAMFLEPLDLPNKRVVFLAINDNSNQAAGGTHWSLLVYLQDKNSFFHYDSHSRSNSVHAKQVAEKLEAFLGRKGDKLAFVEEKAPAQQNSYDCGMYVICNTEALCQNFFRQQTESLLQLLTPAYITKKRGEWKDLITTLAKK
It is filed as functional.

Test [3] addresses T4, Sentrin-specific protease 6 (Homo sapiens, UniProt Q9GZR1).
T4 sequence (Q9GZR1 whole entry): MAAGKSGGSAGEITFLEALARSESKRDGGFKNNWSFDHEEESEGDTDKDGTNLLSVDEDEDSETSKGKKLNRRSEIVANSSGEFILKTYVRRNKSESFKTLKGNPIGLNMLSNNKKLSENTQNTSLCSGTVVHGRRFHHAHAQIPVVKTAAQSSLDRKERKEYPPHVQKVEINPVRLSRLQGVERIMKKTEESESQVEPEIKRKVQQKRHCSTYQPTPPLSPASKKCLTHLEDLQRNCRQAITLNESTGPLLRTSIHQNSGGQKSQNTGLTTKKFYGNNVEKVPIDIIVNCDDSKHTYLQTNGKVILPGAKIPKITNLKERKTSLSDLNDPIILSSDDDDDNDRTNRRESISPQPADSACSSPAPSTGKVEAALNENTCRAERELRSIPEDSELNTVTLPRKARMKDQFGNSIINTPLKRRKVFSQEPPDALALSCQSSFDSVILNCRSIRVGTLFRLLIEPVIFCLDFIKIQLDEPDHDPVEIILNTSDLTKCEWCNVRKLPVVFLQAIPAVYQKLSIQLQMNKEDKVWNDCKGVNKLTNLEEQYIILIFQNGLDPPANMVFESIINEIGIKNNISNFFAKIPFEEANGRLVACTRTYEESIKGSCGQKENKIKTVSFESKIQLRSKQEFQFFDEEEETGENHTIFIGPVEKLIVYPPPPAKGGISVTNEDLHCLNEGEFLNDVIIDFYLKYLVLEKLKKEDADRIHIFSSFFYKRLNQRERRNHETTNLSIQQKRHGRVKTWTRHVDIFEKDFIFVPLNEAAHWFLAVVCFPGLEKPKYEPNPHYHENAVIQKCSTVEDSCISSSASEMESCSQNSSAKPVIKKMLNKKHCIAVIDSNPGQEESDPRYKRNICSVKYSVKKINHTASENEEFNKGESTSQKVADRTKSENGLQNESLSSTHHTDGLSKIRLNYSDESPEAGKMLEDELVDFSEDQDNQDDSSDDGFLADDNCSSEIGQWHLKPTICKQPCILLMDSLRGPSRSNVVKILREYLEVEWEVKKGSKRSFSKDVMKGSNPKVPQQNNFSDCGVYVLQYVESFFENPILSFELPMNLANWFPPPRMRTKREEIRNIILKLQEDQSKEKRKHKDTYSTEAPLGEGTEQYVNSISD
The test is classed as functional.

Test [4] addresses T5, Sentrin-specific protease 7 (Homo sapiens, UniProt Q9BQF6).
T5 sequence (Q9BQF6 whole entry): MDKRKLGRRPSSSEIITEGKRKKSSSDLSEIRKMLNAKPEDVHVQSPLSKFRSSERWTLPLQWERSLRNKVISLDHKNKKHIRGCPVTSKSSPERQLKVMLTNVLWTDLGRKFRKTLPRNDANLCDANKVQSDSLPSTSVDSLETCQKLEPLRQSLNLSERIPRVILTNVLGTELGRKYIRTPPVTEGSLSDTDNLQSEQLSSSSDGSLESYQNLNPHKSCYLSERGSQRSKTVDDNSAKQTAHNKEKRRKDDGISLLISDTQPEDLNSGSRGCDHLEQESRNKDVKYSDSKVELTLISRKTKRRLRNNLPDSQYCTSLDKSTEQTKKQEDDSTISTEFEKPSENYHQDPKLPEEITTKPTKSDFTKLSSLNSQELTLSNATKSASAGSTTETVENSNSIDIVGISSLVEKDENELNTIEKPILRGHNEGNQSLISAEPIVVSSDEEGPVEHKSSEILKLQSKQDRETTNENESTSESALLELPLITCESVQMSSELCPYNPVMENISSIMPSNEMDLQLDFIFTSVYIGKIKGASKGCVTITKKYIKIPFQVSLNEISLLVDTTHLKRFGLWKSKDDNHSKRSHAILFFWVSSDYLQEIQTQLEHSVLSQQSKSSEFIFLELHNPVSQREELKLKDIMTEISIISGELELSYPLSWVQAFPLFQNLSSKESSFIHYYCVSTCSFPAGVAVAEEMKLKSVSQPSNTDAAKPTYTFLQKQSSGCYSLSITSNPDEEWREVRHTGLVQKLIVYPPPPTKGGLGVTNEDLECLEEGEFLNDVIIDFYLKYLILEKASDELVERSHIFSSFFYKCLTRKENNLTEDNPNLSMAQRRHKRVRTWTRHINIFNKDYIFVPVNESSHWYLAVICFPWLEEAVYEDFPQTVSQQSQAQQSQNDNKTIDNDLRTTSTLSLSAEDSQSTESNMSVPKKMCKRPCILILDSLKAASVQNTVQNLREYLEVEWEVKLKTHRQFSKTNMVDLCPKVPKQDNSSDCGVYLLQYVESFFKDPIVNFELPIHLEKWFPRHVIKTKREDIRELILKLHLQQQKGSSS
The test is classed as functional.

The target in a further test is T6, Caspase-3 (Homo sapiens, UniProt P42574).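 Also: Dose-response selectivity test against caspase-3 for candidate inhibitors of sentrin-specific proteases (SENPs).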
T6 sequence (P42574 whole entry): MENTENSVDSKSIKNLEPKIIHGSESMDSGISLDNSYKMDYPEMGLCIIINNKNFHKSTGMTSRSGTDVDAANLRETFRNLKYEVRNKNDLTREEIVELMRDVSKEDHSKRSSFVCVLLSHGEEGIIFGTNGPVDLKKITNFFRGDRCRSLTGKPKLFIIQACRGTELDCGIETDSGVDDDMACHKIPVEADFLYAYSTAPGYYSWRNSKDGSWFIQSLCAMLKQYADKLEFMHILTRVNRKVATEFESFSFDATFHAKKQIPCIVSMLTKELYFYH
The test is classed as functional.

Test [5] deals with T7, Short transient receptor potential channel 4 (Mus musculus, UniProt Q9QUQ5).
T7 sequence (Q9QUQ5 whole entry): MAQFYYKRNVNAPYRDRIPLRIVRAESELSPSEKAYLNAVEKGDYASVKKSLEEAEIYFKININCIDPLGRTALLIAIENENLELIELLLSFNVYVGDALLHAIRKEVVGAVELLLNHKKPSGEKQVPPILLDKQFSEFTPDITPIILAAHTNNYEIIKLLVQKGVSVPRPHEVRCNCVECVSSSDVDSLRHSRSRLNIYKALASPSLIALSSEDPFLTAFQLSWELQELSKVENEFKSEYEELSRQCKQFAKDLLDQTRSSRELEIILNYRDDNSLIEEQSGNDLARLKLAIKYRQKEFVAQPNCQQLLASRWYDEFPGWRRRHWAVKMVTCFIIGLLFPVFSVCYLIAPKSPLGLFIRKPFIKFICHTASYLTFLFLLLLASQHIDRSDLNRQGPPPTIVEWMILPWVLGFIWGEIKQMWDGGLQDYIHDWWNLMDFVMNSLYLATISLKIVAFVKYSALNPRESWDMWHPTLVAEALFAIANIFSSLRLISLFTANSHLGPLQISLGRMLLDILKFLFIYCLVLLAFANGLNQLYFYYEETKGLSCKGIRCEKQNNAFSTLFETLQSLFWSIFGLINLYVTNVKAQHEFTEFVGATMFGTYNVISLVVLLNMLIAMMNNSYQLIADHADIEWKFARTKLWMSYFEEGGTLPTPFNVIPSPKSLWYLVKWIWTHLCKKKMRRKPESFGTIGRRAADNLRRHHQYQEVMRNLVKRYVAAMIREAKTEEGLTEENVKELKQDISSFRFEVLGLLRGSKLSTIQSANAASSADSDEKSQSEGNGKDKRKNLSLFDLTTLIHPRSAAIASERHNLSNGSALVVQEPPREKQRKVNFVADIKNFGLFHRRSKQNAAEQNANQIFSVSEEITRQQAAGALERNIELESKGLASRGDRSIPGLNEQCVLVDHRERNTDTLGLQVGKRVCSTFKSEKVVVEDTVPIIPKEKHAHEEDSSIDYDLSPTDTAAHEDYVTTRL
Description: block of DAMGO-driven TRPC4 calcium entry – cell-based, HEK293 TRPC4/mu-opioid, Fluo-4 calcium, dose response (AID 434942).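 Also: potency of inhibitors blocking the TRPC4 calcium response.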 It is filed as functional.

Test [6] addresses Beta-2 adrenergic receptor (Homo sapiens, UniProt P07550). Description: ADRB2 activation measured by internalization – cell-based, FAP fluorogen, flow cytometry, cherry pick 1, dose response (AID 588763). It is filed as functional.
Test [7] deals with T8, Carboxy-terminal domain RNA polymerase II polypeptide A small phosphatase 1 (Homo sapiens, UniProt Q9GZU7).
T8 sequence (Q9GZU7 whole entry): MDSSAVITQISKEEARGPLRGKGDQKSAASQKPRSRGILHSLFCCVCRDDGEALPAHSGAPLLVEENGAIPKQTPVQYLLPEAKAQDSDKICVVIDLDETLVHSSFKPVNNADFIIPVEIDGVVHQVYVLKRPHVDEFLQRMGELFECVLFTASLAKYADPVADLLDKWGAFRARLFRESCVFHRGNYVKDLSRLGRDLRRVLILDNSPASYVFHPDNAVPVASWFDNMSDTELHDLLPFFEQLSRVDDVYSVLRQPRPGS
Description: CTDSP1 inhibitors, concentration-response, biochemical, absorbance readout, ultra-high-throughput screen actives (AID 540297). It is filed as functional.

The target in test [8] is DNA dC->dU-editing enzyme APOBEC-3A (Homo sapiens, UniProt P31941). Description: Dose Response confirmation of small molecule APOBEC3A DNA Deaminase Inhibitors via a fluorescence-based single-stranded DNA deaminase assay. [Related pubchem assays (depositor defined):AID493011, AID493024]. It is filed as functional.
The target in test [9] is DNA dC->dU-editing enzyme APOBEC-3G (Homo sapiens, UniProt Q9HC16). It is filed as functional.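 Also: Dose-response counterscreen measuring inhibition of APOBEC3G DNA deaminase activity, run while confirming APOBEC3A inhibitors.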
Sequence of DNA dC->dU-editing enzyme APOBEC-3G (Q9HC16 whole entry): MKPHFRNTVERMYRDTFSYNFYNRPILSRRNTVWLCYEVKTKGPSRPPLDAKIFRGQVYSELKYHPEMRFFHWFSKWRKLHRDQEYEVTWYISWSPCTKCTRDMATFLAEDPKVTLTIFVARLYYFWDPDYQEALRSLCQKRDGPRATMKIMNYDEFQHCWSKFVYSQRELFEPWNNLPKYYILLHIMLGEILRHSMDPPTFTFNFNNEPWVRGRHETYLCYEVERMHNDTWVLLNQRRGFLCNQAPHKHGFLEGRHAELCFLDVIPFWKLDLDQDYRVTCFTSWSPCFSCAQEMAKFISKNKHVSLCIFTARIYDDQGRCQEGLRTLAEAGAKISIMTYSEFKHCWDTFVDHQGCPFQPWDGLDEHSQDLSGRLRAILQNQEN

Sequence of Beta-2 adrenergic receptor (P07550 whole entry, the tested form may be a part): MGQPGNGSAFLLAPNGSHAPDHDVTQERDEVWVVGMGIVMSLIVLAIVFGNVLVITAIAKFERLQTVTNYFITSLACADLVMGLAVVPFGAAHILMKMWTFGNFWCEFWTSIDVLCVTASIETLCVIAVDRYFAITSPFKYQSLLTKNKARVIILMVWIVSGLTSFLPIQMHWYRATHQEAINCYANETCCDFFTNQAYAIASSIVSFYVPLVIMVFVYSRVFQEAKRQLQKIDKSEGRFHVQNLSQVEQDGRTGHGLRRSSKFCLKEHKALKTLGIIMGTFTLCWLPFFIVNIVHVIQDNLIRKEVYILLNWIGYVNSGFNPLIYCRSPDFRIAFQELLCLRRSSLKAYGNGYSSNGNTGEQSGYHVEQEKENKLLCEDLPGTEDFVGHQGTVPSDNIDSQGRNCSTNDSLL
Sequence of Cytochrome P450 3A4 (P08684 whole entry): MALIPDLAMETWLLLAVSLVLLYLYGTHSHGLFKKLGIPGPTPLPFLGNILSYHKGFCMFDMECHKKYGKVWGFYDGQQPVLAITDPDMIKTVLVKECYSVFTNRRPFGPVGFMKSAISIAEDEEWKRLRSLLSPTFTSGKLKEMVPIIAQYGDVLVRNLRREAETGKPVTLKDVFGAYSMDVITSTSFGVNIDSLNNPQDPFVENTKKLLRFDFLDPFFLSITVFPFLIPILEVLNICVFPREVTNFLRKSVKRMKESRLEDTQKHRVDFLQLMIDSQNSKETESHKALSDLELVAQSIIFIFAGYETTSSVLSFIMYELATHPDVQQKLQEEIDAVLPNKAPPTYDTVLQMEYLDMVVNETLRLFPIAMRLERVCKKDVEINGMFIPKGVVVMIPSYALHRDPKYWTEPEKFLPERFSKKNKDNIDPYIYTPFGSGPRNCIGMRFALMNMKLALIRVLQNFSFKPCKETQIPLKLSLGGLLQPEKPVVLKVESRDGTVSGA
Sequence of DNA dC->dU-editing enzyme APOBEC-3A (P31941 whole entry): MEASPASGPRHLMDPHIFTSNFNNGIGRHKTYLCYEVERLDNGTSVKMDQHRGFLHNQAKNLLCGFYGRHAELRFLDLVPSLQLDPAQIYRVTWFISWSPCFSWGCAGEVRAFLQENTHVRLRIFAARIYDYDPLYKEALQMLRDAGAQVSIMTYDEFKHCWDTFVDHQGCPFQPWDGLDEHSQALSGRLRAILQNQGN

Regarding `CC(C)OC(=O)CN1CCN(C2c3ccccc3-c3ccccc32)CC1`, at Cytochrome P450 3A4, the AC50 was 25.1 µM (inconclusive). Further, the values for the IC50 (in test [1]; at Protein skinhead-1) were 10.7 µM (active) and > 100 µM (inactive), respectively.

Take `C=COC(=O)CSc1nc(-c2cccs2)ccc1C#N`: the IC50 is 8.96 µM (active) in [2], 6.53 µM (active) in test [3], 16.4 µM (active) in test [4] and 13.3 µM (active) on Caspase-3.

For `Cn1c(-c2ccccc2)cnc1NCc1ccccc1`, in test [5], the concentration for a half-maximal effect (EC50) was 5.31 µM (active). Moreover, the IC50 in [1] is 11.5 µM (active).

As for `COc1ccc(C2=NN(C(=O)c3cccs3)C(c3ccc(OC)cc3)C2)cc1` (stereo not given), in test [6], the EC50 is 4.84 µM (active).

`Cc1ncc(CN2CCCC(C(=O)Nc3ccc(-c4cccc(F)c4)cc3)C2)cn1` (stereo not given): the EC50 in [6] is 0.695 µM (active).

Take `C[C@H]1CN([C@@H](C)CO)C(=O)Cc2cc(NS(=O)(=O)c3cn(C)cn3)ccc2O[C@@H]1CN(C)C(=O)Nc1ccc(F)cc1`: in test [7], the IC50 is 33.7 µM (active).

In the case of `C[n+]1ccc(C(=O)NCc2ccccc2)cc1` [ENISAMIUM IODIDE], the IC50 in test [7] was 9.76 µM (active); in [8], 2.98 µM (active); in test [9], 4.98 µM (active).

Usually AC50 stands for the midpoint of the concentration-response curve, whichever way the signal moves. Broadly, the IC50 is the point on the concentration scale where inhibition reaches its midpoint. A word on the EC50: it is the concentration needed to bring the measured effect to its halfway point.
